Measured values reported in publication PMC8151276, “An Integrated Approach toward NanoBRET Tracers for Analysis of GPCR Ligand Engagement” (Molecules, 2021).

Key:
ADRB1 = molecular target: T1, ADRB1 (Homo sapiens, UniProt P08588); assay: NanoBRET screen HiBiT-ADRB1 in HEK293; type: binding; conditions: ADRB1
T1 construct: purchased Promega (in-house HiBiT-GPCR construct library, NanoBRET)

ADRB2 = molecular target: T2, ADRB2 (Homo sapiens, UniProt P07550); assay: NanoBRET screen HiBiT-ADRB2 in HEK293; type: binding; conditions: ADRB2, other tracers/Quetiapine (unmodified)
T2 construct: purchased Promega (in-house HiBiT-GPCR construct library, NanoBRET)
T2 sequence (P07550 whole entry): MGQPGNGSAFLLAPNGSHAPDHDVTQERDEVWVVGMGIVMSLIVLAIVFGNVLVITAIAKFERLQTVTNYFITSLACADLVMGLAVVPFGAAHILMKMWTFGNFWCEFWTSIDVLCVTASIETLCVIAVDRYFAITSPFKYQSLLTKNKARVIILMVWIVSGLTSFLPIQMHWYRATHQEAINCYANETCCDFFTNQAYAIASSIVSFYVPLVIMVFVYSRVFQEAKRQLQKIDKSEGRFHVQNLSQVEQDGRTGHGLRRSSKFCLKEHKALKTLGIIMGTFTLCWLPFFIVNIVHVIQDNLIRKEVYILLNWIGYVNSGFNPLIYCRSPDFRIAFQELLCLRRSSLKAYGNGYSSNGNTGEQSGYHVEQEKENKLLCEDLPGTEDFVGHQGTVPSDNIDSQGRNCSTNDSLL
Description: (§1) Each tracer candidate was screened across the entire library of HiBiT-GPCR constructs using NanoBRET as the detection modality. As depicted in Figure 4A, the specificity of interactions was evaluated through decrease in BRET due to competitive displacement of a bound tracer by excess parental compound. Each tracer was analyzed for binding to each HiBiT-GPCR fusion in the absence and in the presence of competing parental compound. Briefly, HEK293 cells were transfected with HiBiT-GPCR constructs diluted into promoterless DNA to reduce expression and maximize translocation to the cell surface. Each tracer candidate was then screened at concentrations of 1 μM and 0.1 μM across cells expressing these fusions. Cells were treated for 1.5 h with tracer either alone or in the presence of 20 μM competing parental compound (i.e., control). BRET was measured upon addition of purified LgBiT and subsequent complementation with HiBiT genetically fused to a GPCR. The specificity of interactions was assessed through a decrease in BRET signal due to competitive displacement of the bound tracer. To further gauge the robustness of these interactions, the fold response over the control (i.e., BRETtracer/BRETcontrol) was calculated. We chose a 1.5-fold response, which translates to ≥7-fold signal over noise as the minimal threshold required to score an interaction as positive.
(§2) HiBiT-GPCR DNA constructs were diluted in 10 mM Tris pH 8 to a final concentration of 0.01 μg/μL, arrayed in 96-well plates and stored at −20 °C. For transfection, HEK293 cells were suspended in Opti-MEM (without phenol red) supplemented with 2% fetal bovine serum (Seradigm) and 100 units/mL penicillin–streptomycin (Gibco) at a final concentration of 220,000 cells/mL and dispensed into white 96-well plates at 90 μL/well. Subsequent transfections and screens were carried using an Agilent Bravo Automated Liquid Handling Platform. First, the 96-well HiBiT DNA arrays were diluted 25-fold in Opti-MEM (without serum or phenol red) to a final concentration of 0.0004 μg/μL and 20 μL of the diluted DNAs were transferred into new 96-well plates. Next, promoterless carrier DNA (1 μg/μL) was diluted 25-fold (0.04 μg/μL) and then dispensed into the diluted arrays at 20 μL/well. Following brief mixing, Viafect transfection reagent (Promega) diluted 16-fold into Opti-MEM was dispensed into the plates at 40 μL/well. After mixing by pipetting, plates were incubated for 10 min on the pipetting station deck. The DNA-transfection reagent complexes were then added to plates containing cells. To facilitate the screen, 10 μL of DNA-transfection reagent complexes were added in duplicates to the top 4 and bottom 4 rows, resulting in two identical 48-well arrays per plate. Plates with transfected cells were incubated for 18–20 h at 37 °C/5% CO2. A screen of each tracer across the entire library using two different concentrations requires duplicate plates of transfected cells. Depending on the number of tracers being screened, transfections can be scaled up using the same ratios. The next day, for each tracer, four 20× screening solutions in tracer dilution buffer (Promega) were prepared: two duplicates at final concentration of 20 μM and two duplicates at a final concentration of 2 μM. […] The four resulting solutions were diluted 4-fold in Opti-MEM without serum or phenol red to generate 5× solutions (5 µM and 0.5 µM tracer +/− 100 μM competing compound). To screen the library, a BioTek MultiFlo FX liquid dispenser was used to dispense 22.5 µL of tracer solution to the top 4 rows and 22.5 µL tracer + competing compound solution to the 4 bottom rows. Plates were briefly mixed on an orbital shaker and incubated for 1.5 h at room temperature. […] Plates were briefly mixed on an orbital shaker and incubated for 15 min to allow complementation.

ADRB3 = molecular target: T3, ADRB3 (Homo sapiens, UniProt P13945); assay: NanoBRET screen HiBiT-ADRB3 in HEK293; type: binding; conditions: ADRB3
T3 construct: purchased Promega (in-house HiBiT-GPCR construct library, NanoBRET)
T3 sequence (P13945 whole entry): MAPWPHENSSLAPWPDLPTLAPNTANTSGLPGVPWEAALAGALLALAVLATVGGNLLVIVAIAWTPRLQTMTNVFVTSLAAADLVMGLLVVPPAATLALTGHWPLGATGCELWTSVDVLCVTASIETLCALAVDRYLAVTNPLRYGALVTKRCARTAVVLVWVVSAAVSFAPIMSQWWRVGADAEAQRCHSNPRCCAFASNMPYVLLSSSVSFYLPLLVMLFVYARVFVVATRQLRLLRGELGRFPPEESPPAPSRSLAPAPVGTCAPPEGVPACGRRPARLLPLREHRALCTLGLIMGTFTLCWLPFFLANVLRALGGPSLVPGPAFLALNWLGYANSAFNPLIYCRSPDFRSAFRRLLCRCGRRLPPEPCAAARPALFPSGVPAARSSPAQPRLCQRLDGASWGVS
Description: as §1, §2

OPRD1 = molecular target: T4, OPRD1 (Homo sapiens, UniProt P41143); assay: NanoBRET screen HiBiT-OPRD1 in HEK293; type: binding; conditions: OPRD1
T4 construct: purchased Promega (in-house HiBiT-GPCR construct library, NanoBRET)
T4 sequence (P41143 whole entry): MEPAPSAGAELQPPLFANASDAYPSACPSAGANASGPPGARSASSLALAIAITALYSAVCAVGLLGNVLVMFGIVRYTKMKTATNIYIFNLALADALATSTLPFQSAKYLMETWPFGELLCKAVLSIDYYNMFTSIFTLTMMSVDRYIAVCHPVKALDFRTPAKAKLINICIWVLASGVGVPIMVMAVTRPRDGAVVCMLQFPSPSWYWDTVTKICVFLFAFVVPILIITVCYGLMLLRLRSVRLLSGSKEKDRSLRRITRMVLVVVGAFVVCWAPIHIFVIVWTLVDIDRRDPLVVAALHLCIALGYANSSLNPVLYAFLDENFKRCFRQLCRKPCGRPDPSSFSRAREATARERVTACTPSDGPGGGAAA
Description: as §1, §2

OPRK1 = molecular target: T5, OPRK1 (Homo sapiens, UniProt P41145); assay: NanoBRET screen HiBiT-OPRK1 in HEK293; type: binding; conditions: OPRK1
T5 construct: purchased Promega (in-house HiBiT-GPCR construct library, NanoBRET)
T5 sequence (P41145 whole entry): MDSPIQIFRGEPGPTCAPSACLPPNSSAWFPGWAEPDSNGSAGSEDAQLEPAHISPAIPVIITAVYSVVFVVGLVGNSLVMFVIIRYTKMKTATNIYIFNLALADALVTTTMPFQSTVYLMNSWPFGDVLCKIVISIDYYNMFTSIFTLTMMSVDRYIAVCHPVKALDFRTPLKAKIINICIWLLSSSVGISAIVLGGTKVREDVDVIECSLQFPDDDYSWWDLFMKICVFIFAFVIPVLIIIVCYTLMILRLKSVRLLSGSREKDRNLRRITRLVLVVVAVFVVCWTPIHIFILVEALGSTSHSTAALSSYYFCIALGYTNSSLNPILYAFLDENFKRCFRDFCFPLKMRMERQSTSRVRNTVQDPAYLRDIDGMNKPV
Description: as §1, with “positive. […]. Below we highlight the screening results obtained for our exemplary fluorescent tracers based on Clozapine, Amitriptyline and AZD1283.” for “positive.”
HiBiT-GPCR DNA constructs were diluted in 10 mM Tris pH 8 to a final concentration of 0.01 μg/μL, arrayed in 96-well plates and stored at −20 °C. For transfection, HEK293 cells were suspended in Opti-MEM (without phenol red) supplemented with 2% fetal bovine serum (Seradigm) and 100 units/mL penicillin–streptomycin (Gibco) at a final concentration of 220,000 cells/mL and dispensed into white 96-well plates at 90 μL/well. Subsequent transfections and screens were carried using an Agilent Bravo Automated Liquid Handling Platform. First, the 96-well HiBiT DNA arrays were diluted 25-fold in Opti-MEM (without serum or phenol red) to a final concentration of 0.0004 μg/μL and 20 μL of the diluted DNAs were transferred into new 96-well plates. Next, promoterless carrier DNA (1 μg/μL) was diluted 25-fold (0.04 μg/μL) and then dispensed into the diluted arrays at 20 μL/well. Following brief mixing, Viafect transfection reagent (Promega) diluted 16-fold into Opti-MEM was dispensed into the plates at 40 μL/well. After mixing by pipetting, plates were incubated for 10 min on the pipetting station deck. The DNA-transfection reagent complexes were then added to plates containing cells. To facilitate the screen, 10 μL of DNA-transfection reagent complexes were added in duplicates to the top 4 and bottom 4 rows, resulting in two identical 48-well arrays per plate. Plates with transfected cells were incubated for 18–20 h at 37 °C/5% CO2. A screen of each tracer across the entire library using two different concentrations requires duplicate plates of transfected cells. Depending on the number of tracers being screened, transfections can be scaled up using the same ratios. The next day, for each tracer, four 20× screening solutions in tracer dilution buffer (Promega) were prepared: two duplicates at final concentration of 20 μM and two duplicates at a final concentration of 2 μM. A competing unmodified compound was added to one of each duplicate at a final concentration of 400 μM. The four resulting solutions were diluted 4-fold in Opti-MEM without serum or phenol red to generate 5× solutions (5 µM and 0.5 µM tracer +/− 100 μM competing compound). To screen the library, a BioTek MultiFlo FX liquid dispenser was used to dispense 22.5 µL of tracer solution to the top 4 rows and 22.5 µL tracer + competing compound solution to the 4 bottom rows. Plates were briefly mixed on an orbital shaker and incubated for 1.5 h at room temperature. […]

OPRM1 = molecular target: T6, OPRM1 (Homo sapiens, UniProt P35372); assay: NanoBRET screen HiBiT-OPRM1 in HEK293; type: binding; conditions: OPRM1
T6 construct: purchased Promega (in-house HiBiT-GPCR construct library, NanoBRET)
T6 sequence (P35372 whole entry): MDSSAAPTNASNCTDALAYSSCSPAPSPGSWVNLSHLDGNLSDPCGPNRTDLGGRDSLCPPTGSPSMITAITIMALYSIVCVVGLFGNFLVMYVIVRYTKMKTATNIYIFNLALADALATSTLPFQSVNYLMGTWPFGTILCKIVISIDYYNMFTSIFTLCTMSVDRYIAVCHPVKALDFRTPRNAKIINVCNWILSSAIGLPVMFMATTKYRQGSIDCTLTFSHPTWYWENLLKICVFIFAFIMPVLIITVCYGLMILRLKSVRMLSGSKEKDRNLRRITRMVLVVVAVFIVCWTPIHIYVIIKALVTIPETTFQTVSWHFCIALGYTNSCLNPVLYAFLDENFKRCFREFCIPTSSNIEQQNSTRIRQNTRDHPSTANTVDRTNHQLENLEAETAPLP
Description: as §1, §2

[1] = test system: alpha-Adrenergic receptors; assay: Competitive displacement of Clozapine-a-2-NB590 by unmodified scaffold (NanoBRET); type: binding, human; conditions: for NanoBRET Fold Response, other tracers/XAC (unmodified): displaced by unmodified XAC; for Interaction verified via competitive displacement of tracer: tracer Clozapine-a-2-NB590, alpha-Adrenergic receptors
Description: Finally, we opted to compare the machine learning predictions for the 17 scaffolds to the empirical NanoBRET evaluations across 36 GPCR families investigated by both strategies (Figure 7). […] At the same time, empirical NanoBRET results for each scaffold were consolidated to include results for all relevant fluorescent tracer candidates screened at either 1 μM or 0.1 μM tracer concentrations. […] These additional verifications were incorporated to the comparative analysis and are also included in the compiled screening results (Supplementary Materials Excel spreadsheet).

[2] = test system: 5-Hydroxytryptamine receptors; assay: as above; type: binding, human; conditions: tracer Clozapine-a-2-NB590
From the text: (§3) Finally, we opted to compare the machine learning predictions for the 17 scaffolds to the empirical NanoBRET evaluations across 36 GPCR families investigated by both strategies (Figure 7). The highest correlation between model-predicted and NanoBRET-confirmed interactions was found using minimal thresholds of ≥4% classification probability and ≥1.5-fold response, respectively (Figure S11). These thresholds provided the best balance between model accuracy and a low percentage of false predictions. Accordingly, machine learning predictions for all unmodified scaffolds were compiled (Figure S6) and those above the minimum 4% probability threshold were classified as positive interactions (Figure 7A). At the same time, empirical NanoBRET results for each scaffold were consolidated to include results for all relevant fluorescent tracer candidates screened at either 1 μM or 0.1 μM tracer concentrations. […] One caveat comparing model predictions to empirical NanoBRET evaluations is their use of unmodified versus fluorescently modified scaffolds, respectively. Therefore, model predictions not verified by BRET could in part be the result of fluorophore interference with binding interactions. […]

Dopamine receptors = assay: as above; type: binding, human; conditions: tracer Clozapine-a-2-NB590
From the text: as §3

[3] = other tracers/Quetiapine (unmodified), 0.1μM
[4] = other tracers/Quetiapine (unmodified), 1μM
[5] = other tracers/Tolterodine (unmodified), 0.1μM
[6] = other tracers/Tolterodine (unmodified), 1μM

T1 sequence (P08588 whole entry): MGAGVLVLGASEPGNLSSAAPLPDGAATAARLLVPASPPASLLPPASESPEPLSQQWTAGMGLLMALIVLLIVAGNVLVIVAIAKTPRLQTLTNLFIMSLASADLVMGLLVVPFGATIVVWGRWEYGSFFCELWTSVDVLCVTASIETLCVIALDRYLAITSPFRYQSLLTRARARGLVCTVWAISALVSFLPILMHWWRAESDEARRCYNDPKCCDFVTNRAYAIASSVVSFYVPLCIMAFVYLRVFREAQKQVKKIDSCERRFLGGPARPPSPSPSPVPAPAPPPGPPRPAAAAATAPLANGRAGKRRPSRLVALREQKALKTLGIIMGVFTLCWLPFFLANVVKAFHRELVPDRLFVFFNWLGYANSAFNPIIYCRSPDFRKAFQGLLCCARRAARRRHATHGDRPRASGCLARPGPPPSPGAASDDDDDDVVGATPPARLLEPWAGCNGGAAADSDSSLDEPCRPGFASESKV

`OCCOCCN1CCN(C2=Nc3ccccc3Sc3ccccc32)CC1` [Quetiapine (unmodified)] was tested, and the “NanoBRET Fold Response” value (ADRB1; [3]) was 1.33, the “NanoBRET Fold Response” value (ADRB1; [4]) was 1.09 and the “NanoBRET Fold Response” value (ADRB2; 0.1μM) was 1.07. The “NanoBRET Fold Response” value (ADRB2; 1μM) was 1.33, the “NanoBRET Fold Response” value (ADRB3; [3]) was 1.11 and the “NanoBRET Fold Response” value (ADRB3; [4]) was 1.12. For the same compound, the “NanoBRET Fold Response” value (OPRD1; [3]) was 1.31, the “NanoBRET Fold Response” value (OPRD1; [4]) was 1.06 and the “NanoBRET Fold Response” value (OPRK1; [3]) was 1.76. The “NanoBRET Fold Response” value (OPRK1; [4]) was 0.99, the “NanoBRET Fold Response” value (OPRM1; [3]) was 1.29 and the “NanoBRET Fold Response” value (OPRM1; [4]) was 1.00.
`CCCn1c(=O)c2[nH]c(-c3ccc(OCC(=O)NCCN)cc3)nc2n(CCC)c1=O` [XAC (unmodified)] was tested, and the “NanoBRET Fold Response, other tracers/XAC (unmodified)” value ([1]; ADRA1A, other tracer 0.1μM) was 3.51, the “NanoBRET Fold Response, other tracers/XAC (unmodified)” value ([1]; ADRA1A, other tracer 1μM) was 1.56 and the “NanoBRET Fold Response, other tracers/XAC (unmodified)” value ([1]; ADRA1B, other tracer 0.1μM) was 1.61. For the same compound, the “NanoBRET Fold Response, other tracers/XAC (unmodified)” value ([1]; ADRA1B, other tracer 1μM) was 1.32, the “NanoBRET Fold Response, other tracers/XAC (unmodified)” value ([1]; ADRA2A, other tracer 0.1μM) was 1.12 and the “NanoBRET Fold Response, other tracers/XAC (unmodified)” value ([1]; ADRA2A, other tracer 1μM) was 1.14. The “NanoBRET Fold Response, other tracers/XAC (unmodified)” value ([1]; ADRA2B, other tracer 0.1μM) was 4.34, the “NanoBRET Fold Response, other tracers/XAC (unmodified)” value ([1]; ADRA2B, other tracer 1μM) was 1.57 and the “NanoBRET Fold Response, other tracers/XAC (unmodified)” value ([1]; ADRA2C, other tracer 0.1μM) was 1.33.
For `CCCn1c(=O)c2[nH]c(-c3ccc(OCC(=O)NCCN)cc3)nc2n(CCC)c1=O` [XAC, Xanthine amine congener, reference compound], the “Interaction verified via competitive displacement of tracer” value [1] was “additional interactions”.
With `N#CNC(=NCCCOc1cccc(CN2CCCCC2)c1)NCCNC(=O)c1ccc(N)cc1` [Aminopotentidine] the “Interaction verified via competitive displacement of tracer” value [1] was “verify additional interactions”, the “Interaction verified via competitive displacement of tracer” value [2] was “verify additional interactions” and the “Interaction verified via competitive displacement of tracer” value (Dopamine receptors) was “verify additional interactions”.
For `Cc1ccc(O)c([C@H](CCN(C(C)C)C(C)C)c2ccccc2)c1` [Tolterodine (unmodified)], the “NanoBRET Fold Response” value (ADRB1; [5]) was 0.99, the “NanoBRET Fold Response” value (ADRB1; [6]) was 1.01 and the “NanoBRET Fold Response” value (ADRB3; [5]) was 1.01. For the same compound, the “NanoBRET Fold Response” value (OPRD1; [6]) was 0.91, the “NanoBRET Fold Response” value (OPRK1; [5]) was 0.99 and the “NanoBRET Fold Response” value (OPRK1; [6]) was 1.00. The “NanoBRET Fold Response” value (OPRM1; [5]) was 0.97.
